The values that follow come from patent publication US20170216360A1, “METHODS AND COMPOSITIONS FOR IMPROVING HOMING OF CELLS INCLUDING MESENCHYMAL STEM CELLS” (SANOFI, priority 2014, published 2017).

For data set [1], the system named is MSC firm adhesion to E-selectin-coated surface. In words: E-selectin firm adhesion assay under shear flow, with antibody blocking. The following applies: 3 μM for 24 h. The data set is classed as cell-based, human. Here is the method: (§1) Cell adhesion experiments were performed using Bioflux1000 (FluxionBio), allowing accurate control over shear flow. A special 48-well plate was used, in which a microfluidic channel (350 μm×70 μm) connects each pair of adjacent wells (termed inlet and outlet wells). The plate was placed under vacuum and the channels were coated from the inlet with recombinant human E-selectin (5 μg/mL) or ICAM-1 (5 μg/mL) and incubated at 37° C. for 1 h. Prior to introducing the cells into the channel, a wash with PBS−/− from the outlet well was performed for 5 min. Compound-pretreated MSCs were introduced into the channel, followed by attachment period of 2 minutes (no flow applied during the attachment period). Attached cells were then subjected to increasing shear flow, ranging from 0.25 dynes/cm^2 for up to 10 dynes/cm^2. Images were acquired using the Montage software and cell adhesion to the coated channels following subjection to shear flow was examined. See also disclosure elsewhere herein.
Pre-confluent MSCs were incubated for 24 hours with the indicated small molecules (3 μM). MSCs were than detached, washed and incubated for 30 minutes with an antibody reagent. The following antibodies are used: anti-human CD11a (clone: HI111), anti-human CD90 (clone: MAB2067), mouse anti-human CD11a (clone: TS1/22), and mouse IgG1 isotype control. Cells were then introduced into the channel and given 2 minutes to adhere before being subjected to increasing shear flow for a firm adhesion assay on a microfluidic channel coated with E-selectin or ICAM-1.
(§2) 1. Obtain preferred channel coating (protein/cell monolayer). 2. Prepare cell suspension (same concentrations detailed above for different cell types). 3. Add 50 μl of cell suspension to outlet well. 4. Introduce cells into channel by applying shear force of 2 dynes/cm^2 (cells should be observed within 10-15 sec flowing from outlet to inlet). 5. Once cells are observed in the channel, stop the flow and allow the introduced cells to sit for different time periods ranging from 30 seconds to 5 minutes. 6. Following this settling period, apply shear force starting from 0.5 dynes/cm^2 up to 10 dynes/cm^2 and acquire videos using stream acquisition. 7. Cell quantification is then performed using the Montage software—percentage of cells adhered, rolled or washed away after applying shear flow should be quantified.

Data set [2] concerns human mesenchymal stem cells. In words: In vitro functional firm adhesion assay of cells (Table 3, coating not stated). The data set is classed as cell-based. Also noted: key to Result, in vitro Firm Adhesion: NA = negative activity result; A = positive activity result. The following applies: for Firm adhesion, Percent increase: relative to untreated and/or negative control MSCs. Here is the method: as §1, §2

The subject of data set [3] is human mesenchymal stromal cells (MSCs). In words: Cell viability assay, IncuCyte FLR with Yoyo-1 dye (membrane integrity). The following applies: 24 hours pretreatment. The data set is classed as cell-based. The protocol:
Cell viability experiments were performed using the IncuCyte FLR (Essen Bioscience). Cells were stained with a cell impermeant cyanine dimer nucleic acid stain (Yoyo-1, Life Technologies). This fluorescent dye was used to measure cell membrane integrity. Pre-confluent human mesenchymal stromal cells (MSCs) were incubated for 24 hours with both the indicated small molecules […]. To kinetically measure MSC membrane integrity, images were acquired every two hours using an IncuCyte FLR live-cell image imaging system.

The subject of data set [4] is MSC secretome. Put plainly: Secretomic analysis of small molecule-primed MSCs (Bio-plex immunoassays). The data set is classed as cell-based, human. The following applies: for MSC secretome changes, result in words: 3 μM for 24 hours. The protocol: A single batch of human MSCs (#7F3915) was used for all of these experiments. Cells were seeded at 25,000 cells/well in a 12-well microplate. The following day, cells were treated with the selected compound (3 μM) or DMSO (as control). After 24 hours of treatment, secretomic samples were collected, centrifuged and frozen. Secretomes of MSCs were assayed for cytokines, chemokines and growth factors using Bio-plex human 21-plex and 27-plex immunoassay kits (Bio-Rad), according to the manufacturer's instructions. The 27-plex and 21-plex panels consisted of the following analytes: IL-1alpha, IL-1beta, IL-1Ralpha, IL-2, IL-3, IL-4, IL-5, IL-6, IL-7, IL-8, IL-9, IL-10, IL12p40, IL12p70, IL-13, IL-15, IL-17, IL-18, CTACK, GROalpha, HGF, IFN-alpha2, LIF, MCP-1, MCP-3, MIF, MIG, beta-NGF, SCF, SCGF-beta, SDF-1alpha, TNF-alpha, TNF-beta, TRAIL, Eotaxin, FGF-2, G-CSF, GM-CSF, IFN-gamma, IP-10, MIP-1alpha, PDGF-bb, RANTES and VEGF. A standard range of 0.2 to 3,200 pg/mL was used. Samples and controls were run in triplicate, standards and blanks in duplicate. Error bars represent standard deviation (3 independent experiments).
Analysis of the secretome of MSCs was conducted upon pretreatment of MSCs with compound 1929 for 24 h. In this experiment, the MSCs were from donor 318006 (BM318006 P7). The mean and standard deviation values of secretome analytes were measured in pg/ml.

Structures can show the parent of a compound that is named as a salt.

On to `CCc1c2c(nc3ccc(OC(=O)N4CCC(N5CCCCC5)CC4)cc13)-c1cc3c(c(=O)n1C2)COC(=O)[C@]3(O)CC` [Compound 1927, reference compound], for which, in data set [1] (E-selectin), the “Effect of antibody blocking of CD11a or CD90 on firm adhesion” value is “no effect”. In addition, in data set [1] (vs vehicle-treated MSCs), the “MSC firm adhesion to E-selectin-coated substrates, result in words” value was “did not improve”. Further, in data set [2], the “Firm adhesion, Percent increase” value amounted to 22%. The MSC viability result in data set [3] is “did not modify MSC viability”. For the same molecule, in data set [4], the “MSC secretome changes, result in words” value is recorded as “no secretome changes”.
In the case of `Cn1cc(C2=C(c3c4n(c5ccccc35)CCC(CN)C4)C(=O)NC2=O)c2ccccc21` (stereo not drawn) [Compound 1929, 3-(8-aminomethyl-6,7,8,9-tetrahydro-pyrido[1,2-a]indol-10-yl)-4-(1-methyl-1H-indol-3-yl)-pyrrole-2,5-dione hydrochloride], in data set [1], the “Adhered cells on E-selectin-coated surface before CD11a blocking” value is listed as around 90% and the “Firm adhesion to E-selectin of pretreated MSC compared to control MSCs” value is reported as 3 fold. The “Adhered cells on E-selectin-coated surface following CD11a blocking” value in data set [1] (CD11a blocking antibody 30 minutes) is on record as 50%. For the same molecule, in data set [1] (E-selectin), the “Effect of antibody blocking of CD90 on firm adhesion” value is given as “no effect”. The “Result, in vitro Firm Adhesion” value in data set [2] (pretreated huMSCs) was “A”. Besides, in data set [2] (hydrochloride), the “Firm adhesion, Percent increase” value is on record as 88%. The MSC viability entry in data set [3] is recorded as “did not modify MSC viability”. In data set [4], the “MSC secretome changes, result in words” value is “did not substantially alter”. Further, in data set [4] (3 μM, 24 h, MSC donor 318006), the “Mean of [IFN-g]” value is 14.9 pg/mL, the “Mean of [IL-6]” value was found to be 333.5 pg/mL, the “Mean of [IL-8]” value stood at 31.1 pg/mL and the “Mean of [IL-12p70]” value was 13.9 pg/mL. Also, in data set [4] (3 μM, 24 h, MSC donor 318006), the “Mean of [MCP-1]” value is 22.5 pg/mL and the “Mean of [VEGF]” value was found to be 486.8 pg/mL. Further, in data set [4] (3 micromolar for 24 hours), the “IL-6 level secreted by MSC” value was “downregulation”. Moreover, in data set [4] (MSC secretome), the “Fold change of analyte VEGF upon pretreatment (vs. vehicle control)” value is 0.75 +/− 0.26.
